Test results published in patent US9717699B2, “Sterilized compositions of cyanoacrylate monomers and naphthoquinone 2,3-oxides” (Adhezion Biomedical, LLC, priority 2014, dated 2017).

Experiment: Miscibility/solubility of additive in cyanoacrylate monomer
Type: physicochemical
Settings: activated 2-octyl cyanoacrylate composition, room temperature

Compound | Miscibility with 2-octyl cyanoacrylate | Miscibility with 2-octyl cyanoacrylate (listed as Phylloquinone oxide)
CC(=O)Oc1cc(C)c(OC(C)=O)c2ccccc12 [1,4-diacetoxy-2-methylnaphthalene] | well soluble | –
C/C(=C\CC12OC1(C)C(=O)c1ccccc1C2=O)CCCC(C)CCCC(C)CCCC(C)C (centres unmarked) [Vitamin K1 oxide, 2-methyl-3-phytyl-1,4-naphthoquinone 2,3-oxide] | well-miscible | well miscible
CC1=CC(=O)c2ccccc2C1=O [2-methyl-1,4-naphthoquinone] | well-miscible | –
CC1=C(C/C=C(\C)CCC[C@H](C)CCC[C@H](C)CCCC(C)C)C(=O)c2ccccc2C1=O [2-methyl-3-phytyl-1,4-naphthoquinone] | well dissolved | –
